Activity calls are given as the source filed them. The rule behind the calls is not given here.
Tests used:
Progesterone receptor [1] = biological target: T1, Progesterone receptor (Homo sapiens, UniProt P06401); experiment: Human progesterone receptor (hPR) agonist activity in T47D human breast cancer cell line; NA=not active; assay type: functional, cell-based
T1 sequence (P06401 whole entry): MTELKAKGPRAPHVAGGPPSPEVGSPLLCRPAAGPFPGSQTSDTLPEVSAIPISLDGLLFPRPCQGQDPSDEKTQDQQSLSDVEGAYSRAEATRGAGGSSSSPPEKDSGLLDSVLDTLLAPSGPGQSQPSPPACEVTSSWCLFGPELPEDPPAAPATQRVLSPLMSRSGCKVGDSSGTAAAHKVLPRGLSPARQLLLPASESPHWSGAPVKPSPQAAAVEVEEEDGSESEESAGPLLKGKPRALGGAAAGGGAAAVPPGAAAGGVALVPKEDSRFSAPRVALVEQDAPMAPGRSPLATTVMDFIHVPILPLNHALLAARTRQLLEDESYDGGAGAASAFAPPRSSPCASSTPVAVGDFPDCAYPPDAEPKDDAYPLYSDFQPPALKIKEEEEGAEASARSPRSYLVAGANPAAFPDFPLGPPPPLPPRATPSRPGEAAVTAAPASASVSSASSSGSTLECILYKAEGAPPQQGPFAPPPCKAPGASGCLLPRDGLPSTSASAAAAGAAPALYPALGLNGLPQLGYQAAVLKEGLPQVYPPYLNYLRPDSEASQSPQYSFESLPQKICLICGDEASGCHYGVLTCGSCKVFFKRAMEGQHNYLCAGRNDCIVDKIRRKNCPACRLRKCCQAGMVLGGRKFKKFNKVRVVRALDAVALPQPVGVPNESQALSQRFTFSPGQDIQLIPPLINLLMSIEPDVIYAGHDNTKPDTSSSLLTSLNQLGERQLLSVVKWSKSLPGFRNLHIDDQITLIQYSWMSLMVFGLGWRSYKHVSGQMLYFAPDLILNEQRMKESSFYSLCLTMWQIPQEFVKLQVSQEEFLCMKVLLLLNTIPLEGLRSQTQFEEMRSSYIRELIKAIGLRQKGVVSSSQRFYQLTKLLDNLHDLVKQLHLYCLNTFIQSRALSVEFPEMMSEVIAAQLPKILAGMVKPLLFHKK

Progesterone receptor [2] = biological target: T1, Progesterone receptor; experiment: Human progesterone receptor (hPR) agonist activity using cotransfection assay in CV-1 cells.; assay type: functional, cell-based
Progesterone receptor [3] = biological target: T1, Progesterone receptor; experiment: Antagonist activity against human progesterone receptor (hPR) in T47D human breast cancer cell line; assay type: functional, cell-based
Progesterone receptor [4] = biological target: T1, Progesterone receptor; experiment: Binding affinity against human progesterone receptor (hPR) in a competitive binding assay
Progesterone receptor [5] = biological target: T1, Progesterone receptor; experiment: Antagonist activity against human progesterone receptor (hPR) using cotransfection assay in CV-1 cells; assay type: functional, cell-based
Progesterone receptor [6] = biological target: T1, Progesterone receptor; experiment: Human progesterone receptor (hPR) agonist activity in T47D human breast cancer cell line; assay type: functional, cell-based
[7] = biological target: T2, Glucocorticoid receptor (Homo sapiens) (UniProt P04150); experiment: Percent inhibition of glucocorticoid receptor transcriptional activity at Dexamethasone EC50; not active; assay type: functional
T2 sequence (whole entry): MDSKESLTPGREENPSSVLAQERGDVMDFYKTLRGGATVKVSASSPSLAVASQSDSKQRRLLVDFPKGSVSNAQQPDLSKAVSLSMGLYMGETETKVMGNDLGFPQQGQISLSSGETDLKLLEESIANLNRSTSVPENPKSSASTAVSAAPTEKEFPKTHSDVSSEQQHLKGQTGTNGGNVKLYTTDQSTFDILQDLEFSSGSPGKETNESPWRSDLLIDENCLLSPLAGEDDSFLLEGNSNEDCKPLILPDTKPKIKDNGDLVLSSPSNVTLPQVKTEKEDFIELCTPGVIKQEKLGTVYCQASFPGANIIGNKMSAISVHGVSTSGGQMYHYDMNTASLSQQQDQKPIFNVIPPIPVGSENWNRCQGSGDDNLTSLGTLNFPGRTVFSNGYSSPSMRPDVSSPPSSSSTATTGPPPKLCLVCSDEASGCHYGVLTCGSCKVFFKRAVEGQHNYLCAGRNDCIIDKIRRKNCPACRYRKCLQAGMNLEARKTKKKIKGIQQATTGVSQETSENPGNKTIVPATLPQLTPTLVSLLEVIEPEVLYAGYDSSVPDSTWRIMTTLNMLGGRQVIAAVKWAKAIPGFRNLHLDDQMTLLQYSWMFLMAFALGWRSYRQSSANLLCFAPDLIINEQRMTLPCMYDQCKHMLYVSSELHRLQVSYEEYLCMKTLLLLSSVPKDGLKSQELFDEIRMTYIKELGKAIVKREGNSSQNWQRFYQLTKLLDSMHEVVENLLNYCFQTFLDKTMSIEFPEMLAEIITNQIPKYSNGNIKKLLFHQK

[8] = biological target: Estrogen receptor (Homo sapiens) (UniProt Q92731+P03372); experiment: Percent inhibition of estrogen receptor transcriptional activity at estradiol EC50; NA=not active; assay type: functional
Glucocorticoid receptor [9] = biological target: T3, Glucocorticoid receptor (Homo sapiens, UniProt P04150); experiment: Cross-reactivity as binding to human glucocorticoid receptor (hGR); NA=not active; assay type: functional
T3 sequence (P04150 whole entry): T2 sequence (whole entry)

[10] = biological target: T4, Mineralocorticoid receptor (Homo sapiens, UniProt P08235); experiment: Cross-reactivity as binding to human mineralocorticoid receptor (hMR); assay type: functional
T4 sequence (P08235 whole entry): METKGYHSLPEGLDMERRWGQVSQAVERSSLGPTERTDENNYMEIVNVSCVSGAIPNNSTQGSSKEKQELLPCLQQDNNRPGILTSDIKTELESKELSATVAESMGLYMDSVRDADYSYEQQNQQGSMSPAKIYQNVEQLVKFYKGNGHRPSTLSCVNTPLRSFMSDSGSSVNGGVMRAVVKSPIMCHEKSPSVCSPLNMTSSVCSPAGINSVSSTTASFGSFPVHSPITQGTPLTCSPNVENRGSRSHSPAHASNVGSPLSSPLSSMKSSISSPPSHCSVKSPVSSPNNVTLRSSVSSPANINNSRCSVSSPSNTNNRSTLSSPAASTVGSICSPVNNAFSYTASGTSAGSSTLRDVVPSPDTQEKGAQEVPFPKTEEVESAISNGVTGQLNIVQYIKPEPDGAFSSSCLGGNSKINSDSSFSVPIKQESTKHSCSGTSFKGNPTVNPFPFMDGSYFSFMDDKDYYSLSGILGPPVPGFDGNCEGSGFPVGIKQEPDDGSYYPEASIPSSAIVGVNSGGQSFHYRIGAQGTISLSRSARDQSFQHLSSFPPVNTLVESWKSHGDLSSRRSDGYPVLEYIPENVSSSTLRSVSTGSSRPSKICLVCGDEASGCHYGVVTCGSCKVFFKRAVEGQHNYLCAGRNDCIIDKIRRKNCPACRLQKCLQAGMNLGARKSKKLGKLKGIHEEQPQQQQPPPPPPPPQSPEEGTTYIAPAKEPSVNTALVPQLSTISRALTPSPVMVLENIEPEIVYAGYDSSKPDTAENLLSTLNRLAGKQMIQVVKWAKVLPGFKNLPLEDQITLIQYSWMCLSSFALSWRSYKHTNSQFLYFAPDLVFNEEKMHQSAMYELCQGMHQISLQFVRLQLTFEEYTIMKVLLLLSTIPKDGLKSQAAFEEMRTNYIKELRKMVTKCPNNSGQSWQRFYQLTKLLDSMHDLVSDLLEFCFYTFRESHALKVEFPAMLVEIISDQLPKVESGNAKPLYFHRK

Androgen receptor = biological target: T5, Androgen receptor (Homo sapiens, UniProt P10275); experiment: Cross-reactivity as binding to human androgen receptor (hAR); assay type: functional
T5 sequence (P10275 whole entry): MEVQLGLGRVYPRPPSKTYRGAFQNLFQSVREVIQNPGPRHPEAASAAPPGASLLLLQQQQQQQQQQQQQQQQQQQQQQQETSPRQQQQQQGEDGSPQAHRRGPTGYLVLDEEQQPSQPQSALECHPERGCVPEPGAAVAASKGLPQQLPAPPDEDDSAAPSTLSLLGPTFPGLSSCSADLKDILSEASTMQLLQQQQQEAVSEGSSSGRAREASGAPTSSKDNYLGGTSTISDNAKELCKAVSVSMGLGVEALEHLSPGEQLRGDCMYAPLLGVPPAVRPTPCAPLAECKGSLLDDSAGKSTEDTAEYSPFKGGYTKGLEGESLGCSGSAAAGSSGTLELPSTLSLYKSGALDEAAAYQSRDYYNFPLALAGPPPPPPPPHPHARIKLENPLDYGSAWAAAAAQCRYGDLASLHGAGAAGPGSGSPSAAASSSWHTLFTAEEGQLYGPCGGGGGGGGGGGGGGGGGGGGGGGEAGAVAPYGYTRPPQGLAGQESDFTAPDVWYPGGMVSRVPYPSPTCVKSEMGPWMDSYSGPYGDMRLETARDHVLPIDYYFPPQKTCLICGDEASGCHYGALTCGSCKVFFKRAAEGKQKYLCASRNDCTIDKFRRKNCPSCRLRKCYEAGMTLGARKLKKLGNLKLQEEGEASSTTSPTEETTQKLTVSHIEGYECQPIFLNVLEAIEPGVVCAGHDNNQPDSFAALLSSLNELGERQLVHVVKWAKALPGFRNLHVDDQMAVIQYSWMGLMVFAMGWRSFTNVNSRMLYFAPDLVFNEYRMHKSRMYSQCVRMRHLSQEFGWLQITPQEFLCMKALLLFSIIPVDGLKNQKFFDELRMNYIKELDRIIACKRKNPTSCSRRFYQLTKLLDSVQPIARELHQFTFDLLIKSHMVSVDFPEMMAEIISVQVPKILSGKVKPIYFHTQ

Glucocorticoid receptor [11] = biological target: T3, Glucocorticoid receptor; experiment: Cross-reactivity as binding to human glucocorticoid receptor (hGR); assay type: functional
Progesterone receptor [12] = biological target: T1, Progesterone receptor; experiment: Human progesterone receptor (hPR) agonist activity expressed in CV-1 cells; assay type: functional, cell-based
[13] = biological target: T6, Mineralocorticoid receptor (Homo sapiens) (UniProt P08235); experiment: Percent inhibition of mineralocorticoid receptor transcriptional activity at aldosterone EC50; NA=not active; assay type: functional
T6 sequence (whole entry): T4 sequence (P08235 whole entry)

[14] = biological target: T4, Mineralocorticoid receptor; experiment: Cross-reactivity as binding to human mineralocorticoid receptor (hMR); NA=not active; assay type: functional

SMILES	EC50 (Progesterone receptor [1])	EC50 (Progesterone receptor [2])	IC50 (Progesterone receptor [3])	Ki (Progesterone receptor [4])	IC50 (Progesterone receptor [5])	EC50 (Progesterone receptor [6])	also measured
CC1=CC(C)(C)Nc2ccc(-c3cc(Br)c(C#N)s3)cc21	Not Active	Not Active	250 nM	249 nM	242 nM	–	–
CC1=CC(C)(C)Nc2ccc(-c3ccsc3C#N)cc21	Not Active	Not Active	278 nM	> 100 nM	318 nM	–	–
CC1=CC(C)(C)Nc2ccc(-c3cc(Br)cs3)cc21	–	–	190 nM	32 nM	105 nM	3500 nM	–
CC1=CC(C)(C)Nc2ccc(-c3cc(C#N)sc3C)cc21	–	Not Active	120 nM	31 nM	109 nM	1400 nM	–
CC1=CC(C)(C)Nc2ccc(-c3cc(F)cc(C#N)c3)cc21	–	Not Active	–	–	–	–	Efficacy [7]: inactive; Efficacy [8]: inactive; IC50 (Glucocorticoid receptor [9]): Not Active; IC50 [10]: > 1000 nM
Cc1cc(C#N)sc1-c1ccc2c(c1)C(C)(C)C(=O)C(C)(C)N2	–	–	–	3.9 nM	10 nM	–	IC50 (Androgen receptor): 150 nM; IC50 (Glucocorticoid receptor [11]): 35 nM; IC50 [10]: 2100 nM; EC50 (Progesterone receptor [12]): 350 nM
CC1=CC(C)(C)Nc2ccc(-c3cccs3)cc21	Not Active	Not Active	700 nM	237 nM	416 nM	–	–
CC1=CC(C)(C)Nc2ccc(-c3sc(C#N)cc3C)cc21	–	Not Active	123 nM	26 nM	33 nM	500 nM	IC50 (Androgen receptor): 200 nM; IC50 (Glucocorticoid receptor [11]): 780 nM; IC50 [10]: 2000 nM
CC1=CC(C)(C)Nc2ccc(-c3c(C)sc(C#N)c3C)cc21	–	Not Active	150 nM	36 nM	124 nM	580 nM	–
CC1=CC(C)(C)Nc2ccc(-c3csc(C=O)c3)cc21	Not Active	Not Active	102 nM	37 nM	245 nM	–	–
CC1=CC(C)(C)Nc2ccc(-c3ccc(C#N)s3)cc21	–	–	80 nM	55 nM	27 nM	1800 nM	IC50 (Androgen receptor): 1110 nM; IC50 (Glucocorticoid receptor [11]): 3200 nM; Efficacy [13]: inactive; IC50 [14]: Not Active; EC50 (Progesterone receptor [12]): 2900 nM
CN(C)c1ccc([C@H]2C[C@]3(C)[C@@H](CC[C@]3(O)CCCO)[C@@H]3CCC4=CC(=O)CCC4=C32)cc1 [ONAPRISTONE]	Not Active	Not Active	–	–	–	–	–
CC1=CC(C)(C)Nc2ccc(-c3sc(C#N)cc3Br)cc21	–	Not Active	120 nM	433 nM	52 nM	700 nM	–
CC1=CC(C)(C)Nc2ccc(-c3ccc(Cl)s3)cc21	–	Not Active	151 nM	12 nM	43 nM	2650 nM	–
CC1(C)Nc2ccc(-c3csc(C#N)c3)cc2C(C)(C)C1=O	–	–	–	12.4 nM	14 nM	–	IC50 (Androgen receptor): 1100 nM; IC50 (Glucocorticoid receptor [11]): 900 nM; IC50 [10]: 2700 nM; EC50 (Progesterone receptor [12]): 1190 nM
CC1=CC(C)(C)Nc2ccc(-c3ccc(C=O)s3)cc21	Not Active	Not Active	78 nM	80 nM	729 nM	–	–
CC1=CC(C)(C)Nc2ccc(-c3ccc(Br)s3)cc21	Not Active	Not Active	71 nM	31 nM	65 nM	–	–
CC1=CC(C)(C)Nc2ccc(-c3sccc3C)cc21	Not Active	Not Active	105 nM	25 nM	232 nM	–	–
Cc1cc(C#N)sc1-c1ccc2c(c1)C(C)CC(C)(C)N2 (configuration not stated)	–	–	–	–	–	–	IC50 (Androgen receptor): 45 nM; IC50 [10]: 1000 nM

— ChEMBL document CHEMBL1133403 (Bioorg Med Chem Lett, 2000)
